One assay has as its target T1, NanC (scheme A) (Streptococcus pneumoniae, UniProt A0A0H2UQE4).
T1 construct: gene SP_1326; residues 28-740, signal peptide removed (CBM plus catalytic domain); pET21b, E. coli Rosetta (DE3), nickel column; 82 kDa
In words: X-ray crystal structure, soak. It is filed as binding.

The target of the next assay is T2, NanC CBM (Streptococcus pneumoniae, UniProt A0A0H2UQE4).
T2 construct: gene SP_1326; purified by scheme A
In words: isothermal titration calorimetry. In kind it is binding. Particulars: 20 mM Tris pH 8, 50 mM NaCl; stoichiometry fixed 1:1; CBM site. In general terms: Isothermal titration calorimetry measures the heat released or taken up as one component is titrated into another.

T1 sequence (A0A0H2UQE4 entry or part of it): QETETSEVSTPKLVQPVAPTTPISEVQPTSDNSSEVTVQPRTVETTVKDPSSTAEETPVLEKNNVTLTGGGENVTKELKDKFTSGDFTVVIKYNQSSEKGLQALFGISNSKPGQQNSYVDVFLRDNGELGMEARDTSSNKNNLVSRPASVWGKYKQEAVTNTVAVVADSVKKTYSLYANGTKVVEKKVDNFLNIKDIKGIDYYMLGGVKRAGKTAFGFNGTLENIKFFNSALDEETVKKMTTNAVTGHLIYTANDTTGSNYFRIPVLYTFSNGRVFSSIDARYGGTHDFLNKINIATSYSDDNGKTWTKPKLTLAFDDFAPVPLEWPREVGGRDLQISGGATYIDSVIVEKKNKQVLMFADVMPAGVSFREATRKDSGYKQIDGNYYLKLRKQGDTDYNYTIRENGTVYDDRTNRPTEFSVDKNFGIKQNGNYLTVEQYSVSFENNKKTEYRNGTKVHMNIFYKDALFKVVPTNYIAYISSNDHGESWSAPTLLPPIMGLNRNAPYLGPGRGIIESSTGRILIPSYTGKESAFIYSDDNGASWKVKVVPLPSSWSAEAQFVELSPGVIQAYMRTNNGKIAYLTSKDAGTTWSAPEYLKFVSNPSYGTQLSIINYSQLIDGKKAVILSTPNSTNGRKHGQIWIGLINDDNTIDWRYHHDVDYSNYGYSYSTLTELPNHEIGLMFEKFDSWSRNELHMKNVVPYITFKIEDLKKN
T2 sequence (A0A0H2UQE4 entry or part of it): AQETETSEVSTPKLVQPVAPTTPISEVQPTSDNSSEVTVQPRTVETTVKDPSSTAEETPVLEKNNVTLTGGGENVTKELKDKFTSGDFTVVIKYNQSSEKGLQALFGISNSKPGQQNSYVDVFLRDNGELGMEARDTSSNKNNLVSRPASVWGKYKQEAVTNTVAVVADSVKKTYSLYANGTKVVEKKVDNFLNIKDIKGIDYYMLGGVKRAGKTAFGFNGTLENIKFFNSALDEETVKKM

In the case of `CC(=O)N[C@H]1[C@H]([C@H](O)[C@H](O)CO)OC(F)(C(=O)O)C(F)[C@@H]1O` (stereo partly shown) [2,3F-Neu5Ac], the “X-ray crystal structure, soak” value on NanC (scheme A) (covalent, active site Tyr-695 adduct 3F-β-Neu5Ac, 5 mM, 45 min soak, intact compound also in CBM site) is reported as 3F-β-Neu5Ac was covalently bound to Tyr-695 in an unstrained. `CC(=O)N[C@H]1[C@H]([C@H](O)[C@H](O)CO)O[C@@](O[C@H]2[C@@H](O)[C@@H](CO)O[C@@H](O[C@H]3[C@H](O)[C@@H](O)C(O)O[C@@H]3CO)[C@@H]2O)(C(=O)O)C[C@@H]1O` (stereo partly shown) [3′SL]: at NanC CBM, the Kd (commonly the equilibrium constant for the complex coming apart) worked out at 1480 µM. Compound `CC(=O)N[C@H]1[C@H]([C@H](O)[C@H](O)CO)O[C@@](OC[C@H]2O[C@@H](O[C@H]3[C@H](O)[C@@H](O)C(O)O[C@@H]3CO)[C@H](O)[C@@H](O)[C@H]2O)(C(=O)O)C[C@@H]1O` (stereo partly shown) [6′SL] came in with an equilibrium dissociation constant (Kd) on NanC CBM of 1600 µM. As for `CCC(CC)O[C@@H]1C=C(C(=O)O)C[C@H](N)[C@H]1NC(C)=O` [OC], at NanC (scheme A) (catalytic active site, 20 mM, 5 min soak), the “X-ray crystal structure, soak” value is listed as “OC binds in the NanC active site”.

Values taken from paper PMC4646021, “Streptococcus pneumoniae NanC” (The Journal of Biological Chemistry, 2015).
